We go through nine compounds from patent US20250026778A1 (TIUMBIO CO., LTD., priority 2021, published 2025).

Read-outs that look alike come from different tables or passages of the source. Bounds are passed on as bounds.

This assay concerns the target T1, his-galectin-3 (Homo sapiens, UniProt P17931).
T1 construct: purchased Abcam
Put plainly: TR-FRET assay (in vitro galectin-3 binding inhibitory activity test). The settings on record: compound at 20 μM, 60 nM his-galectin-3, 15 nM biotin-ASF. The method in brief:
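Compound is premixed with his-galectin-3 (60 nM final), then biotin-ASF (15 nM), Tb anti-His antibody (2 nM) and streptavidin-d2 (20 nM) are added. After at least 3.5 hours at RT in HEPES/NaCl buffer with Tween 20 and BSA, TR-FRET is read at 615/665 nm. DMSO serves as the uninhibited control, ASF omission as background.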
For orientation: In TR-FRET formats the signal depends on donor and acceptor labels being close together.

Where [1] appears, read: Table 2, read-out: % Inhibitory activity (at 20 μM).
[2] abbreviates: Table 1, read-out: % Inhibitory activity (at 20 μM).
Where [3] appears, read: read-out: % Inhibitory activity (at 20 μM), Table 1.

T1 sequence (P17931 whole entry): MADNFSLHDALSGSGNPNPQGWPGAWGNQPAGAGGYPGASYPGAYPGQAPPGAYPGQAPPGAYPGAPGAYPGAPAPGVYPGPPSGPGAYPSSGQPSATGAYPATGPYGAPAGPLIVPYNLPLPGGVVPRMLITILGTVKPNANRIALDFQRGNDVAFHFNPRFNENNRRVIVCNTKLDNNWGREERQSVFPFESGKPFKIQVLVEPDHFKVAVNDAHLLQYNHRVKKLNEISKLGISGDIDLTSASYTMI

For the compound `COc1ccc2c(c1)CCC1(O2)O[C@H](CO)[C@H](O)[C@H](n2cc(-c3cc(F)c(F)c(F)c3)nn2)[C@H]1O` (single isomer, unassigned) [Compound A10, (3′R,4'S,5′R,6′R)-6′-(hydroxymethyl)-6-methoxy-4′-(4-(3,4,5-trifluorophenyl)-1H-1,2,3-triazol-1-yl)-3′,4′,5′,6′-tetrahydrospiro[chromane-2,2′-pyran]-3′,5′-diol], the “% Inhibitory activity (at 20 μM)” value (Table 1) is recorded as “D (inhibition rate was less than 25%)”. With `O=C(N[C@@H]1CCO[C@]12O[C@H](CO)[C@H](O)[C@H](n1cc(-c3cc(F)c(F)c(F)c3)nn1)[C@H]2O)c1ccc2cc(Cl)ccc2c1` [Compound A173, 6-chloro-N-((4R,5S,7R,8R,9S,10R)-8,10-dihydroxy-7-(hydroxymethyl)-9-(4-(3,4,5-trifluorophenyl)-1H-1,2,3-triazol-1-yl)-1,6-dioxaspiro[4.5]decan-4-yl)-2-naphthamide], under setting [1], the inhibition at 20 µM was 25 to 50%. On to `O=C(CO[C@@H]1[C@@H](n2cc(-c3cc(F)c(F)c(F)c3)nn2)[C@@H](O)[C@@H](CO)O[C@@]12CCCO2)N1CC(O)C1` [Compound A34, 2-(((5S,7R,8R,9S,10R)-8-hydroxy-7-(hydroxymethyl)-9-(4-(3,4,5-trifluorophenyl)-1H-1,2,3-triazol-1-yl)-1,6-dioxaspiro[4.5]decan-10-yl)oxy)-1-(3-hydroxyazetidin-1-yl)ethanone], for which the inhibition at 20 µM under setting [2] lay within 25 to 50%. On to `OC[C@H]1O[C@]2(OCC[C@H]2n2ccnn2)[C@H](O)[C@@H](n2cc(-c3cc(F)c(F)c(F)c3)nn2)[C@H]1O` [Compound A153, (4R,5S,7R,8R,9S,10R)-7-(hydroxymethyl)-4-(1H-1,2,3-triazol-1-yl)-9-(4-(3,4,5-trifluorophenyl)-1H-1,2,3-triazol-1-yl)-1,6-dioxaspiro[4.5]decane-8,10-diol], for which, under setting [1], the inhibition at 20 µM is below 25%. As to `OC[C@H]1O[C@@]2(CCCO2)[C@H](O)[C@@H](n2cc(-c3cc(F)c(F)c(F)c3)cn2)[C@H]1O` [Compound A237, (5S,7R,8R,9S,10R)-7-(hydroxymethyl)-9-(4-(3,4,5-trifluorophenyl)-1H-pyrazol-1-yl)-1,6-dioxaspiro[4.5]decane-8,10-diol], the inhibition at 20 µM under setting [1] was 25 to 50%. Consider `OC[C@H]1O[C@@]2(CCCN(Cc3cccnc3)C2)[C@H](O)[C@@H](n2cc(-c3cc(F)c(F)c(F)c3)nn2)[C@H]1O` [Compound A142, (2R,3R,4S,5R,6R)-2-(hydroxymethyl)-8-(pyridin-3-ylmethyl)-4-(4-(3,4,5-trifluorophenyl)-1H-1,2,3-triazol-1-yl)-1-oxa-8-azaspiro[5.5]undecane-3,5-diol], for which, under setting [3], the inhibition at 20 µM was below 25%. On to `C[C@@H](O[C@@H]1[C@@H](n2cc(-c3cc(F)c(F)c(F)c3)nn2)[C@@H](O)[C@@H](CO)O[C@@]12CCCO2)C(=O)O` [Compound A82, (R)-2-(((5S,7R,8R,9S,10R)-8-hydroxy-7-(hydroxymethyl)-9-(4-(3,4,5-trifluorophenyl)-1H-1,2,3-triazol-1-yl)-1,6-dioxaspiro[4.5]decan-10-yl)oxy)propanoic acid], for which the inhibition at 20 µM under setting [3] was below 25%. Take `OC[C@H]1O[C@@]2(CCCO2)[C@H](OCc2cccc(Cl)c2)[C@@H](n2cc(-c3cc(F)c(F)c(F)c3)nn2)[C@H]1O` [Compound A64, (5S,7R,8R,9S,10R)-10-((3-chlorobenzyl)oxy)-7-(hydroxymethyl)-9-(4-(3,4,5-trifluorophenyl)-1H-1,2,3-triazol-1-yl)-1,6-dioxaspiro[4.5]decan-8-ol]: the inhibition at 20 µM under setting [3] was below 25%.

For `O=c1oc2ccc(F)c(F)c2cc1CO[C@H]1[C@@H](O)[C@@H](CO)O[C@@]2(CCCO2)[C@@H]1O` [Compound A09, 3-((((5S,7R,8S,9S,10R)-8,10-dihydroxy-7-(hydroxymethyl)-1,6-dioxaspiro[4.5]decan-9-yl)oxy)methyl)-5,6-difluoro-2H-chromen-2-one], the inhibition at 20 µM under setting [2] was below 25%.
